Key:
[1] = target: T1, Neuronal acetylcholine receptor; alpha4/beta2 (Homo sapiens, UniProt P17787+P43681); assay: Displacement of [3H] nicotine from human alpha4beta2 nAChR transfected in SH-EP1 cells by liquid scintillation counting; type: cell-based
[2] = target: T2, Neuronal acetylcholine receptor; alpha3/alpha6/beta2/beta3 (Homo sapiens, UniProt P17787+P32297+Q05901+Q15825); assay: Displacement of [3H]epibatidine from human alpha6/alpha3beta2beta3 nAChR transfected in CHO cells by liquid scintillation counting; type: cell-based
T2 sequence (P17787 whole entry, canonical isoform): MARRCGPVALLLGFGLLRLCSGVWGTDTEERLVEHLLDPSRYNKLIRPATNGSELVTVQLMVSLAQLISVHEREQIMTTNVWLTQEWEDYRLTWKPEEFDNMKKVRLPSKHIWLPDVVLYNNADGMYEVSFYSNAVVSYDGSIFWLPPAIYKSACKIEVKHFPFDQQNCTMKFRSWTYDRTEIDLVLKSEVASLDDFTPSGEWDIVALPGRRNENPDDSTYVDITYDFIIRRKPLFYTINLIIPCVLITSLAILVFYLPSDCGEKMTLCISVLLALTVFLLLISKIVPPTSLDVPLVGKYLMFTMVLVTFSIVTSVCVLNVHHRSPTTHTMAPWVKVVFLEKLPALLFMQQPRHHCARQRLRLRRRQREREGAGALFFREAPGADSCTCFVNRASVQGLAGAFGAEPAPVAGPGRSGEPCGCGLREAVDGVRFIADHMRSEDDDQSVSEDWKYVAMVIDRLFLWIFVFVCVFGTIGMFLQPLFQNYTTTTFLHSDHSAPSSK
T2 sequence (P32297 whole entry, canonical isoform): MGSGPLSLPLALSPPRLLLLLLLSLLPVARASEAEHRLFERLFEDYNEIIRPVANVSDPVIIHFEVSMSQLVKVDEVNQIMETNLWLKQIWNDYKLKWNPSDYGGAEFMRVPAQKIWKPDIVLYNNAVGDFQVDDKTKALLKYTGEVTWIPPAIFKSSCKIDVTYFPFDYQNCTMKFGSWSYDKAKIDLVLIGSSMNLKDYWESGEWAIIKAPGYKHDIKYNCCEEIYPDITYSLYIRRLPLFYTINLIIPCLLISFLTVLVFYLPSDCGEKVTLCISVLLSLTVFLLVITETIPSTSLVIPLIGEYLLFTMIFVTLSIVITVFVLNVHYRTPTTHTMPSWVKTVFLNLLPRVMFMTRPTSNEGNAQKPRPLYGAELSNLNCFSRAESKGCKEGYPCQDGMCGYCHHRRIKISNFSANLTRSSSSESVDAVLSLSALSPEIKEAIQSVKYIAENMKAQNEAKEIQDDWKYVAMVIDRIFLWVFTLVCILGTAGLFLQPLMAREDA
T2 sequence (Q15825 whole entry, canonical isoform): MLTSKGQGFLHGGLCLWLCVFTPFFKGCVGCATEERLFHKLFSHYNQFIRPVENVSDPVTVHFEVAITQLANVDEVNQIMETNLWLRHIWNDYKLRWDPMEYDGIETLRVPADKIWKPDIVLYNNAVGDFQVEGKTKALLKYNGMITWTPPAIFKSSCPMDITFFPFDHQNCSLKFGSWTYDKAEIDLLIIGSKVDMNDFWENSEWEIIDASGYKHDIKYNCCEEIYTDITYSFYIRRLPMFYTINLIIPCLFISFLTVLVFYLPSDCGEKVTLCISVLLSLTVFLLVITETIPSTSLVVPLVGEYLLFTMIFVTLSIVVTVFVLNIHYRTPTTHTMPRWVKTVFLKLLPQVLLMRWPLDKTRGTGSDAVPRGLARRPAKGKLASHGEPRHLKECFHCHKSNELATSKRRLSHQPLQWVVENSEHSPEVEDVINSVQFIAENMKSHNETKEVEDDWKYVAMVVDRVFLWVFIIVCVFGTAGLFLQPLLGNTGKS
T2 sequence (Q05901 whole entry, canonical isoform): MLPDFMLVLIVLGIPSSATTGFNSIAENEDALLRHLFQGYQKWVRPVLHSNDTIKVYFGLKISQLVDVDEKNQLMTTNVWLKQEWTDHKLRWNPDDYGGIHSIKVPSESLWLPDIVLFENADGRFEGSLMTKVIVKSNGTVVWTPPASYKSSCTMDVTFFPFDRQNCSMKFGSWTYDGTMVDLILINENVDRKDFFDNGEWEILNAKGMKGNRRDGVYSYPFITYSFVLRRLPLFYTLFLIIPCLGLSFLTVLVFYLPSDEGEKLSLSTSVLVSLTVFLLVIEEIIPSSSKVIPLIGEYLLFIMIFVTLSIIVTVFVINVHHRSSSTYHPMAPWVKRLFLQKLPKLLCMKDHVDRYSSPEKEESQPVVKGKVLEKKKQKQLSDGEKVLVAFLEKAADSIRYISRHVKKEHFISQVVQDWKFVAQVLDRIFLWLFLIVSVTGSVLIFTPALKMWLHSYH

[3] = target: T1, Neuronal acetylcholine receptor; alpha4/beta2; assay: Agonist activity at human alpha4beta2 nAChR high sensitivity isoform transfected in SH-EP1 cells assessed as calcium flux by FLIPR assay relative to control; type: cell-based
[4] = target: T2, Neuronal acetylcholine receptor; alpha3/alpha6/beta2/beta3; assay: Agonist activity at human alpha6/alpha3beta2beta3 nAChR transfected in CHO cells assessed as calcium flux by FLIPR assay; type: cell-based
[5] = target: T1, Neuronal acetylcholine receptor; alpha4/beta2; assay: Agonist activity at human alpha4beta2 nAChR transfected in SH-EP1 cells assessed as calcium flux by FLIPR assay; type: cell-based
[6] = target: T1, Neuronal acetylcholine receptor; alpha4/beta2; assay: Agonist activity at human alpha4beta2 nAChR low sensitivity isoform transfected in SH-EP1 cells assessed as calcium flux by FLIPR assay; type: cell-based
[7] = target: T1, Neuronal acetylcholine receptor; alpha4/beta2; assay: Agonist activity at human alpha4beta2 nAChR low sensitivity isoform transfected in SH-EP1 cells assessed as calcium flux by FLIPR assay relative to control; type: cell-based
[8] = target: Neuronal acetylcholine receptor; alpha3/alpha6/beta2/beta3 (Homo sapiens) (UniProt P17787+P32297+Q15825+Q05901); assay: Agonist activity at human alpha6/alpha3beta2beta3 nAChR transfected in CHO cells assessed as calcium flux by FLIPR assay relative to control; type: cell-based
[9] = Drug uptake in po dosed rat plasma after 0.5 hrs by LC-MS/MS analysis; type: ADME, organism-based
[10] = Drug uptake in po dosed rat plasma after 1 hrs by LC-MS/MS analysis; type: ADME, organism-based
[11] = Drug uptake in po dosed rat brain after 1 hrs by LC-MS/MS analysis; type: ADME, organism-based; conditions: read-out: Drug uptake
[12] = Drug uptake in po dosed rat brain after 0.5 hrs by LC-MS/MS analysis; type: ADME, organism-based; conditions: read-out: Drug uptake
[13] = Half life in po dosed rat; type: ADME, organism-based; conditions: in vivo
[14] = Ratio of drug level in po dosed rat brain to plasma after 0.5 hrs by LC-MS/MS analysis; type: ADME, organism-based; conditions: read-out: BPR
[15] = species: Rattus norvegicus; assay: Inhibition of L-dopa-induced abnormal involuntary movement in rat; type: functional
[16] = Ratio of drug level in po dosed rat brain to plasma after 1 hrs by LC-MS/MS analysis; type: ADME, organism-based; conditions: read-out: BPR
[17] = Cmax in po dosed rat; type: ADME, organism-based; set-up: route oral; conditions: in vivo
[18] = Drug uptake in po dosed rat brain after 4 hrs by LC-MS/MS analysis; type: ADME, organism-based; conditions: read-out: Drug uptake
[19] = Ratio of drug level in po dosed rat brain to plasma after 4 hrs by LC-MS/MS analysis; type: ADME, organism-based; conditions: read-out: BPR
[20] = Tmax in po dosed rat; type: ADME, organism-based; conditions: in vivo
[21] = Drug uptake in po dosed rat plasma after 4 hrs by LC-MS/MS analysis; type: ADME, organism-based
[22] = Oral bioavailability in rat; type: ADME, organism-based; conditions: in vivo

T1 sequence (P17787 whole entry): as the sequence (P17787 whole entry, canonical isoform) above
T1 sequence (P43681 whole entry): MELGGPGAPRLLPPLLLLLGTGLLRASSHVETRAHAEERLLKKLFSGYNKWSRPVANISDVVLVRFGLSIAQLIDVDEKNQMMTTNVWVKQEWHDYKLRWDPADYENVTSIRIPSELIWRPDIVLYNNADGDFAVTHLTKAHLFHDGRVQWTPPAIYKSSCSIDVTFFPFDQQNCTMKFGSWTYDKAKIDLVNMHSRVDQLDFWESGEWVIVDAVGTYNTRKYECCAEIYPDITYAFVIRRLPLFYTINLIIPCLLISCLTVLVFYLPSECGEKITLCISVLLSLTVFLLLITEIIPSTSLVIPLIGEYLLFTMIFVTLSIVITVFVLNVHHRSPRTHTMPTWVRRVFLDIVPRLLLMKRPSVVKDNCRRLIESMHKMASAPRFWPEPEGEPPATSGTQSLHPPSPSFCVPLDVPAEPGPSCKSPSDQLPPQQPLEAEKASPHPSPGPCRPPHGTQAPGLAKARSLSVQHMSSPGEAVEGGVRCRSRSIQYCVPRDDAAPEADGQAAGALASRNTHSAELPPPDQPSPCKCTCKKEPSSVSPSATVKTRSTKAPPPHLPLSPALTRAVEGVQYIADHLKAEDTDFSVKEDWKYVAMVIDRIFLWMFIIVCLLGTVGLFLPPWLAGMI

SMILES	Ki [1] [nM]	Ki [2] [nM]	Emax [3] [%]	EC50 [4] [nM]	EC50 [5] [nM]	EC50 [6] [nM]	Emax [7] [%]	Emax [8] [%]	further results
O=C(C1CC1(F)F)N1CC2CC(C1)N2 (configuration not stated)	5.9	75	100	100	1000	2300	94	110	–
CCCC(=O)N1CC2CC(C1)N2	14	350	110	300	580	850	120	92	–
O=C(C1CC1)N1CCNCC1	6000	26000	–	–	–	–	–	–	–
O=C([C@H]1C[C@H]1F)N1CC2CC(C1)N2	–	27	110	62	210	1500	110	130	–
C[C@H]1C[C@@H]1C(=O)N1CC2CC(C1)N2	17	310	85	3800	9100	14000	67	64	–
O=C(C1CC1)N1CC2CCC(C1)N2	320	7200	–	–	–	–	–	–	–
O=C(C1CCCC1)N1CC2CC(C1)N2	160	2900	68	1600	11000	29000	48	62	–
CC(=O)N1CC2CC(C1)N2	150	610	95	750	5100	9700	94	100	–
O=C(C1CC=CC1)N1CC2CC(C1)N2	51	1100	95	1900	6600	17000	93	99	–
CC(C)C(=O)N1CC2CC(C1)N2	130	580	71	16000	19000	20000	86	45	–
O=C(C1CC1)N1CC2CC(C1)N2	–	21	110	80	140	850	110	100	concentration at 0.5 h [9]: 123 ng/mL; concentration at 1 h [10]: 174 ng/mL; concentration at 1 h [11]: 53.7 ng/g; concentration at 0.5 h [12]: 39.5 ng/g; half-life [13]: 1.58 h; Kp at 0.5 h [14]: 0.22; inhibition (INH) [15]: 24%; Kp at 1 h [16]: 0.31; Cmax [17]: 200 ng/mL; concentration at 4 h [18]: 20.2 ng/g; Kp at 4 h [19]: 0.32; Tmax [20]: 1 h; concentration at 4 h [21]: 62.2 ng/mL; bioavailability [22]: 82.6%
CCC(=O)N1CC2CC(C1)N2	6	190	110	180	490	5900	98	120	–
O=C(C1CC1)N1CC2CC1CN2 (configuration not stated)	2800	10000	–	–	–	–	–	–	–
O=C([C@H]1C[C@@H]1F)N1CC2CC(C1)N2	5.4	490	100	620	850	2800	100	85	–
O=C([C@@H]1C[C@@H]1F)N1CC2CC(C1)N2	1.7	55	110	88	120	370	120	120	–
O=C([C@@H]1C[C@H]1F)N1CC2CC(C1)N2	–	43	110	53	120	870	110	130	–
O=C(C1CCC1)N1CC2CC(C1)N2	16	240	99	370	2900	11000	100	80	–
C[C@@H]1C[C@H]1C(=O)N1CC2CC(C1)N2	–	14	110	51	190	2900	110	110	–
O=C(CC1C=CCC1)N1CC2CC(C1)N2 (configuration not stated)	53	2500	94	21000	14000	37000	89	47	–
CC1(C)CC1C(=O)N1CC2CC(C1)N2 (configuration not stated)	3.9	250	92	540	2200	5700	96	73	–
C[C@H]1C[C@H]1C(=O)N1CC2CC(C1)N2	7	170	93	2000	2200	5800	87	60	–
C[C@@H]1C[C@@H]1C(=O)N1CC2CC(C1)N2	–	92	97	920	2100	3800	88	87	–
